In patent US20260117274A1, “ORTHOGONALLY CROSSLINKED PROTEINS, METHODS OF MAKING, AND USES THEREOF” (The Research Foundation for The State University of New York, priority 2022, published 2026):

How the values were obtained:
CATKRS = biological target: T1, CATKRS (Methanosarcina mazei, UniProt Q8PWY1, C348F/L309A/Y306V/Y384F); test: Fluorescence-based detection of CATK incorporation into sfGFP-Q204TAG in BL21(DE3) cells; format: cell-based; details: 1 mM CATK
T1 construct: expressed in transfected cells; host or cells: E. coli BL21(DE3) transformed with pEVOL-CATKRS
T1 sequence (Q8PWY1 whole entry Y306V/L309A/C348F/Y384F): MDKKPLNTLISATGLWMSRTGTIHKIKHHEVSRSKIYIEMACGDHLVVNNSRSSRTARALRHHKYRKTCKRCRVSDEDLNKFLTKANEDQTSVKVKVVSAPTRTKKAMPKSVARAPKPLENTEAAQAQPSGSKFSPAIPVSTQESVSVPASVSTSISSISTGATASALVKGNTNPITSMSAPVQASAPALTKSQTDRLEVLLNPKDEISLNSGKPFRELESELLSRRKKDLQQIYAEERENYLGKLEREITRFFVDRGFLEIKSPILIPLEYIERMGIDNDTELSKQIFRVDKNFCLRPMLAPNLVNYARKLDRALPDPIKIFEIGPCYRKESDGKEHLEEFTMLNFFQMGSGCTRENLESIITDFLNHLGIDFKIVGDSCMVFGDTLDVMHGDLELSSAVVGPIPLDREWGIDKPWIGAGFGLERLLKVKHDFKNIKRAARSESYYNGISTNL
From the text: (§1) To identify pyrrolysine-tRNA synthetase (PylRS) variants that can charge CATKs, we co-transformed BL21(DE3) cells with two plasmids: pEVOL-PylRS encoding PylRS and tRNACUA, and pET-sfGFP-Q204TAG encoding sfGFP bearing an amber codon. We screened a panel of PylRS variants (Table 1), and found one carrying Y306V, L309A, C348F, and Y384F mutations, hereafter referred to as CATKRS, can charge CATK-1, -2, -4, and -7 site-specifically into sfGFP (FIGS. 2b and 10). The incorporations were also confirmed by SDS-PAGE (FIG. 10) and QTOF-LC/MS analyses (FIGS. 2c and 11). Some amount of GSH adducts (˜30%) were detected, presumably due to the high reactivity of CATKs at position-204, a site on sfGFP that is completely solvent exposed.
Site-specific incorporation of CATK into sfGFP. BL21(DE3) cells (50 μL) were co-transformed with the pET-sfGFP-Q204TAG and pEVOL-CATKRS plasmids using the heat shock method. The cells were recovered in 900 μL SOC at 37° C. for 1 hour before plating onto a Luria-Bertani (LB) agar plate containing 100 μg/mL ampicillin and 34 μg/mL chloramphenicol. A single colony from the plate was used to inoculate 6 mL LB broth containing 100 μg/mL ampicillin and 34 μg/mL chloramphenicol. One hundred twenty […] overnight culture was used to inoculate 12 mL LB broth containing the same concentrations of antibiotics. […] The culture was divided into two 6-mL portions. […] The cultures were incubated in an incubator-shaker (37° C., 280 rpm) for 8 hours. […] The supernatant was directly used for fluorescence tests after sonication and centrifugation. […] The mixture was incubated for 2 hours with gentle shaking.

[1] = NMR-based stability assay toward glutathione; format: physicochemical; details: 10 mM glutathione in PBS for 3 days
From the text: We envisioned this acyl transfer-based crosslinking could proceed under neutral conditions if we can identify an appropriate genetically encoded leaving group. To this end, we considered a panel of azoles with pKa values ranging from 19.8 to 8.2, and a varying degree of leaving group effect (FIG. 1a). […] Thus, we designed a series of N-carboxy-4-aryl-1,2,3-triazole-containing lysines (CATK-1-7) as well as three analogous triazolyl lysines, CATK-8, -8a, and -9, for comparison purposes (FIG. 1b). For the synthesis of CATK-1-9, the critical step involved the triphosgene-mediated coupling of aryl- or alkyl-substituted triazoles with a protected lysine. While there was no apparent selectivity for N^2-carbamoylated CATKs, the two regioisomers can be readily separated by flash chromatography. After deprotection, CATK-1-9 were obtained in 7-52% yields. […] Since analogous 1,2,4-triazoles have also been used in designing small-molecule probes for serine hydrolases, we synthesized 1,2,4-triazole-based CATK-9 in four steps with an overall yield of 43%.
In our efforts to identify genetically encoded amino acids that are stable under physiological conditions yet reactive upon photoactivation or through proximity effect, we were intrigued by β-lactam, a venerable chemical moiety found in penicillin and other β-lactam class of antibiotics. […]

wild-type PylRS = biological target: T2, wild-type PylRS (Methanosarcina mazei, UniProt Q8PWY1); test: Fluorescence-based detection of BeLaK incorporation into sfGFP-Q204TAG; format: cell-based; details: 1 mM BeLaK
T2 construct: expressed in transfected cells; host or cells: E. coli BL21(DE3) transformed with pEVOL-PylRS
T2 sequence (Q8PWY1 whole entry): as the sequence (Q8PWY1 whole entry Y306V/L309A/C348F/Y384F) above, with V306Y, A309L, F348C, F384Y counted along it
From the text: (§2) To identify an aminoacyl-tRNA synthetase/tRNA pair for charging two phenylalanine derivatives, we screened our collection of pyrrolysine-tRNA synthetases (PylRS) (Table 1) using superfolder green fluorescent protein bearing an amber codon at position-204 (sfGFP-Q204TAG) as a reporter without success (FIG. 37). In parallel, to our delight, we found wild-type PylRS efficiently charges BeLaK into sfGFP-Q204TAG, with the cell lysate showing a 75-fold increase in fluorescence over the background, similar to BocK, a known substrate for wild-type PylRS (FIG. 32b). We also obtained the crystal structure of a protected BeLaK analog S11 (FIG. 38). We note the lactam ring forms an intramolecular H-bond with the lysine ε-N—H (FIG. 32a), mimicking the pyrroline ring in pyrrolysine—the native substrate of PylRS.
Site-specific incorporation of BeLaK into sfGFP. BL21(DE3) cells (50 μL) were co-transformed with the pET-sfGFP-Q204TAG and pEVOL-PylRS plasmids using the heat shock method. The cells were recovered in 900 μL SOC at 37° C. for 1 hour before plating onto a Luria-Bertani (LB) agar plate containing 100 μg/mL ampicillin and 34 μg/mL chloramphenicol. A single colony from the plate was used to inoculate 6 mL LB broth containing 100 μg/mL ampicillin and 34 μg/mL chloramphenicol. […] The supernatant was directly used for fluorescence tests after sonication and centrifugation. […]

[2] = Stability under bacterial culture conditions (intact mass of sfGFP mutants)
From the text: as §1
as §2, with “We note the lactam ring forms an intramolecular H-bond with the lysine ε-N—H (FIG. 32a), mimicking the pyrroline ring in pyrrolysine—the native substrate of PylRS.” left out

[3] = cited from earlier work
HEK293T cells = format: cell-based; details: human, 24 h
From the text: (§3) To examine whether CATKs are compatible with genetic code expansion in mammalian cells, we first performed a cell viability assay by treating HEK293T cells with CATK-1 and -2 at various concentrations. […] We then cotransfected HEK293T cells with two plasmids: one encodes CATKRS/tRNA^Pyl, and the other encodes the mCherry-TAG-EGFP-HA reporter. The transfected cells were allowed to grow in DMEM supplemented with 10% FBS in the absence or presence of CATK-1.
Cell viability assay. One hundred μL exponentially growing HEK293T cells were seeded into a 96-well plate at a density of 5×10^5 cells per ml. After 24 h, the cells were treated with varying concentrations of CATK amino acids and then incubated at 37° C. for 24 h. Then, 10 μL CCK-8 solution (Dojindo) was added to each well and the cells were further incubated in 37° C. incubator for 1 h. The plates were read immediately using Biotek microtiter plate reader at 450 nm.

[4] = system: mCherry-TAG-EGFP-HA reporter; test: Site-specific incorporation into mCherry-TAG-EGFP in HEK293T cells; format: cell-based, Human; details: CATKRS/tRNA^Pyl, 0.5 mM CATK-1, fluorescence microscopy and western blot
From the text: as §3
Site-specific incorporation of CATK-1 into mCherry-TAG-EGFP in mammalian cells. Human Embryonic Kidney 293T (HEK293T) cells were seeded in a 12-well plate and grown in DMEM supplemented with 10% FBS (HyClone™ GE Healthcare Life Sciences) and 10 μg/mL Gentamycin (Gibco) and 2 μg/mL Plasmocin at 37° C., 5% CO2 until ˜90% confluency. The medium was replaced with DMEM, and cells were transfected by using polyethylenimine (Sigma-Aldrich) in Opti-MEM® (Gibco) with two plasmids (one encoding CATKRS/tRNAPyl CUA pair and another encoding mCherry-TAG-EGFP-HA). Six hours post-transfection, the medium was replaced with fresh DMEM with 10% FBS in the presence or absence of 0.5 mM CATK-1. After 24 hours, live cell images were recorded using the Lionheart™ FX automated microscope (BioTek). The cells were lysed by modified RIPA buffer (25 mM Tris HCl, pH 7.4, 150 mM NaCl, 1% NP-40, 1% sodium deoxycholate, 0.1% SDS, 1 mM EDTA, 1 mM PSMF). […]

For N[C@@H](CCCCNC(=O)n1ncc(-c2cccs2)n1)C(=O)O [CATK-4, N^6-(4-(Thiophen-2-yl)-2H-1,2,3-triazole-2-carbonyl)-L-lysine], the “site-specific charging into sfGFP by CATKRS” value (CATKRS) was “can charge”.

For N[C@@H](Cc1ccc(N2CCC2=O)cc1)C(=O)O [BeLaF-2, (S)-2-amino-3-(4-(2-oxoazetidin-1-yl)phenyl)propanoic acid], the “stability after incubation with glutathione” value [1] was “remained intact”.

In the case of N[C@@H](CCCCNC(=O)N1CCC1=O)C(=O)O [BeLaK, N^6-(2-Oxoazetidine-1-carbonyl)-L-lysine], the “stability after incubation with glutathione” value [1] is reported as “remained intact”, the “increase in fluorescence of cell lysate over the background” value (wild-type PylRS) is reported as 75 fold and the “stability under bacterial culture conditions” value [2] is reported as “stable under bacterial culture conditions”.

For c1cn[nH]n1 [2H-1,2,3-trizole], the pKa [3] is given as 9.4.

In the case of N[C@@H](CCCCNC(=O)n1ncc(-c2ccccc2)n1)C(=O)O [CATK-1, N^6-(4-Phenyl-2H-1,2,3-triazole-2-carbonyl)-L-lysine], the “concentrations at which cytotoxicity was not detected” value (HEK293T cells) is reported as ≤ 500 µM, the “site-specific charging into sfGFP by CATKRS” value (CATKRS) is reported as “can charge” and the “incorporation into mCherry-TAG-EGFP-HA” value [4] is reported as “successful CATK-1 incorporation”.

In the case of Cn1cccc1-c1cnn(C(=O)NCCCC[C@H](N)C(=O)O)n1 [CATK-7, N^6-(4-(1-Methyl-1H-pyrrol-2-yl)-2H-1,2,3-triazole-2-carbonyl)-L-lysine], the “site-specific charging into sfGFP by CATKRS” value (CATKRS) is reported as “can charge”.
